Results on 9 molecules are retold here after patent US20240270821A1, “GIP/GLP1/GCG TRI-RECEPTOR AGONISTS AND USES THEREOF” (priority 2023, published 2024).

What all share (assay type): cell-based
Experiment [1] concerns the target T1, hGLP-1R (Homo sapiens, UniProt P43220). As to the kind of experiment: Functional cAMP activation in the presence of 0.1% casein (no HSA). To be noted: read-out: Relative cAMP EC50, hGLP-1R.
The target of experiment [2] is T1, hGLP-1R. Nature of the experiment: Functional cAMP activity in the presence of 1% HSA. To be noted: read-out: cAMP Rel EC50, hGLP-1R.
Experiment [3] deals with T2, hGIPR (Homo sapiens, UniProt P48546).
T2 sequence (P48546 22-466): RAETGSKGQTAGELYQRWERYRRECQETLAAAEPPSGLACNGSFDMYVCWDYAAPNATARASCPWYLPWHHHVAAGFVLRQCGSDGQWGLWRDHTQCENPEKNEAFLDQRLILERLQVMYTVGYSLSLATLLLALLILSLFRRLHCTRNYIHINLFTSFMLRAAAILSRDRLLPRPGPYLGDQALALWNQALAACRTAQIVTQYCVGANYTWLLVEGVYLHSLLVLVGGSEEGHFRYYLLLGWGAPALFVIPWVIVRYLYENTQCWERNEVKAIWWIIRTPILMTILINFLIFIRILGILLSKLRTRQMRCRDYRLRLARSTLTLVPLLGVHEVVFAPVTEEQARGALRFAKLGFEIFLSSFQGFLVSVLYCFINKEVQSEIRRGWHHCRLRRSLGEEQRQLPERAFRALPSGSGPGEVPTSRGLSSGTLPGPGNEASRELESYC
As to the kind of experiment: Functional cAMP activation in the presence of 0.1% casein (no HSA). The settings on record: read-out: Relative cAMP EC50, hGIPR.

For a further experiment, the target named is human GcgR (Homo sapiens, UniProt P47871). As to the kind of experiment: Functional cAMP activity in the presence of 1% HSA. The settings on record: read-out: cAMP Rel EC50, hGcgR.
The next experiment concerns the target hGcgR (Homo sapiens, UniProt P47871). As to the kind of experiment: Functional cAMP activation in the presence of 0.1% casein (no HSA). The settings on record: read-out: Relative cAMP EC50, hGcgR.
Experiment [4] deals with T2, hGIPR. Nature of the experiment: Functional cAMP activity in the presence of 1% HSA. To be noted: read-out: cAMP Rel EC50, hGIPR.
The mark [5] stands for this setting: in the presence of 0.1% casein (no HSA), geometric mean.

Like-named read-outs stand apart in the source and are kept apart here. Starred links: 1 amine or outer side, 2 acyl side, 3 side chain; linkers in the order of their positions; H or OH if unused. Non-standard residues stand in square brackets, D forms with d. Residues, ends and D or L forms follow the SMILES beside them. Groups on a side chain read outwards from the residue. *: point of attachment. C18 diacid = O=C(O)CCCCCCCCCCCCCCCCC(=O)*; αMePhe(2-F) = C[C@](N)(Cc1ccccc1F)C(=O)O; γGlu = O=C(O)[C@H](CCC(=O)[*:2])N[*:1]; αMe4Pal = C[C@](N)(Cc1ccncc1)C(=O)O; αMeY = C[C@](N)(Cc1ccc(O)cc1)C(=O)O; αMeF = C[C@](N)(Cc1ccccc1)C(=O)O; 4Pal = N[C@@H](Cc1ccncc1)C(=O)O; αMeL = CC(C)C[C@](C)(N)C(=O)O; αMeS = C[C@](N)(CO)C(=O)O; Orn = NCCC[C@H](N)C(=O)O; AEEA = NCCOCCOCC(=O)O; Aib = CC(C)(N)C(=O)O
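Wherever Relative cAMP EC50, hGIPR is given: intracellular cAMP rise after 30 min at 37 °C read by HTRF against a standard curve, scaled between buffer alone (0%) and top control ligand concentration (100%), four-parameter fit.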
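Wherever Relative cAMP EC50, hGLP-1R is given: intracellular cAMP rise after 30 min at 37 °C read by HTRF, normalized between buffer only (0%) and maximal control ligand (100%), four-parameter variable-slope fit.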
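Wherever Relative cAMP EC50, hGcgR is given: intracellular cAMP rise after 30 min at 37 °C, read by HTRF against a cAMP standard curve, scaled from buffer only (0%) to maximal control ligand response (100%).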

T1 sequence (P43220 24-463): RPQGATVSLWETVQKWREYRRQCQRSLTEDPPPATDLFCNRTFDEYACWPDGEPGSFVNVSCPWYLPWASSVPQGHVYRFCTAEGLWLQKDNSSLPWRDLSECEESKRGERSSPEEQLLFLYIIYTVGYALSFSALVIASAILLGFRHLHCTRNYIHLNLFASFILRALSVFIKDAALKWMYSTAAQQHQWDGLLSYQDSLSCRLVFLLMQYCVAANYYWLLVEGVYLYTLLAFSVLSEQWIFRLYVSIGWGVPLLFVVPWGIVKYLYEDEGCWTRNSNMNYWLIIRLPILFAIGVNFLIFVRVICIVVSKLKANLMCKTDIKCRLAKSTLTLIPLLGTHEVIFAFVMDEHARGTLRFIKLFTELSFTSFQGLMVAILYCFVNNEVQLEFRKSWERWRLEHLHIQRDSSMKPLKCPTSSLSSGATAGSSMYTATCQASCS
hGcgR, sequence (P47871 26-477): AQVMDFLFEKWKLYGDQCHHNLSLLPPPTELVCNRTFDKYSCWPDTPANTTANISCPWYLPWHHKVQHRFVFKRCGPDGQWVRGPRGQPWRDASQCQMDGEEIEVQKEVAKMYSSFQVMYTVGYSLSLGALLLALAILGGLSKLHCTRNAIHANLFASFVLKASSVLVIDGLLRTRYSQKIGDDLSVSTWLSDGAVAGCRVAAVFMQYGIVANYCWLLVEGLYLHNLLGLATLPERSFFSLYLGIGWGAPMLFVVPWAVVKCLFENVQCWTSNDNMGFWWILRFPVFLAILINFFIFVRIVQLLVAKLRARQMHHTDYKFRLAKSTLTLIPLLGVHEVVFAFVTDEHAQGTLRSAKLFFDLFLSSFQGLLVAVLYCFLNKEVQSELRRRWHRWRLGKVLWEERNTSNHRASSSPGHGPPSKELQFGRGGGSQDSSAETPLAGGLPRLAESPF
human GcgR, sequence (P47871 26-477): as above

In general, EC50 refers to the midpoint of the concentration-response curve. Turning to “H-Y[Aib]QGT[αMePhe(2-F)]TSD[4Pal][αMeS]I[αMeL]LD[Orn]K([γGlu-γGlu-C18 diacid])AQ[Aib][Orn]FI[dE][αMeY]LAEGGPSSGEPPPSGGEE-NH2 [Example 590]”, the EC50 at hGLP-1R [1] came out at 0.89 nM; on hGLP-1R [2] it was 58.7 nM; at hGIPR [3] it was 0.105 nM; at human GcgR it was 309 nM; on hGcgR it was 4.34 nM; at hGIPR [4] it was 4.25 nM.
As to “H-Y[Aib]QGTFTSD[4Pal]SQ[αMeL]LDKK([γGlu-γGlu-C18 diacid])AQ[αMe4Pal]AFIE[αMe4Pal]LIE[Aib]GPSSGAPPPSGTGE-NH2 [Example 1119]”, the EC50 at hGLP-1R [1] (setting [5]) is 3.57 nM; at hGLP-1R [2], 152 nM; at hGIPR [3] (setting [5]), 0.0939 nM; on human GcgR it was 237 nM; on hGcgR (setting [5]), 7.61 nM; on hGIPR [4] it was 3.95 nM.
Consider “H-Y[Aib]QGT[αMePhe(2-F)]TSD[4Pal]SI[αMeL]LD[Orn]K([γGlu-γGlu-C18 diacid])AQ[αMe4Pal]EFI[dE][αMeY]LQEGGPSSGEPPPSGS-NH2 [Example 649]”, for which the EC50 is 1.35 nM at hGLP-1R [1]; 62.9 nM at hGLP-1R [2]; 0.0221 nM on hGIPR [3]; 669 nM on human GcgR; 21.2 nM on hGcgR; 0.76 nM at hGIPR [4].
Turning to “H-Y[Aib]QGTFTSD[4Pal]SQ[αMeL]LDKK([γGlu-γGlu-C18 diacid])AQ[αMe4Pal]AFIE[αMe4Pal]LIE[Aib]GPSSGAPPPSGE-NH2 [Example 1120]”, the EC50 came to 4.5 nM at hGLP-1R [1] (setting [5]); 171 nM on hGLP-1R [2]; 0.096 nM on hGIPR [3] (setting [5]); 291 nM at human GcgR; 5.17 nM on hGcgR (setting [5]); 9.21 nM at hGIPR [4].
On to “H-Y[Aib]QGTFTSD[4Pal]S[Orn][αMeL]LD[Orn]K([Glu-Glu-γGlu-C18 diacid])AQ[Aib]AFIE[αMeY]LLEGGPSSGAPPPSGSEE-NH2 [Example 1067]”, for which the EC50 turned out to be 17.6 nM on hGLP-1R [1] (setting [5]); 2610 nM at hGLP-1R [2]; 0.471 nM at hGIPR [3] (setting [5]); 1860 nM on human GcgR; 12.6 nM at hGcgR (setting [5]); 86.4 nM at hGIPR [4].
Consider `CC[C@H](C)[C@H](NC(=O)[C@H](Cc1ccccc1)NC(=O)[C@H](C)NC(=O)C(C)(C)NC(=O)[C@H](CCC(N)=O)NC(=O)[C@H](C)NC(=O)[C@H](CCCCNC(=O)COCCOCCNC(=O)COCCOCCNC(=O)CC[C@H](NC(=O)CCCCCCCCCCCCCCCCCCC(=O)O)C(=O)O)NC(=O)[C@H](CCCCN)NC(=O)[C@H](CC(=O)O)NC(=O)[C@H](CC(C)C)NC(=O)[C@](C)(CC(C)C)NC(=O)[C@H](CCCN)NC(=O)[C@H](CO)NC(=O)[C@H](Cc1ccccc1)NC(=O)[C@H](CC(=O)O)NC(=O)[C@H](CO)NC(=O)[C@@H](NC(=O)[C@H](Cc1ccccc1)NC(=O)[C@@H](NC(=O)CNC(=O)[C@H](CCC(N)=O)NC(=O)C(C)(C)NC(=O)[C@@H](N)Cc1ccc(O)cc1)[C@@H](C)O)[C@@H](C)O)C(=O)N[C@@H](CCC(=O)O)C(=O)N[C@@H](Cc1ccc(O)cc1)C(=O)N[C@@H](CC(C)C)C(=O)N[C@@H](CC(C)C)C(=O)N[C@@H](CCC(=O)O)C(=O)N[C@H](C)C(=O)NCC(=O)N1CCC[C@H]1C(=O)N[C@@H](CO)C(=O)N[C@@H](CO)C(=O)NCC(=O)N[C@@H](C)C(=O)N1CCC[C@H]1C(=O)N1CCC[C@H]1C(=O)N1CCC[C@H]1C(=O)N[C@@H](CO)C(=O)N[C@@H](CCC(=O)O)C(=O)NCC(N)=O` [Example 72], for which the EC50 at hGLP-1R [1] (setting [5]) is 1.86 nM; at hGLP-1R [2], 683 nM; at hGIPR [3] (setting [5]), 0.202 nM; at human GcgR, 1910 nM; on hGcgR (setting [5]), 5.48 nM; on hGIPR [4], 56.7 nM.
`CC[C@H](C)[C@H](NC(=O)[C@H](Cc1ccccc1)NC(=O)[C@H](CCCN)NC(=O)C(C)(C)NC(=O)[C@H](CCC(N)=O)NC(=O)[C@H](C)NC(=O)[C@H](CCCCNC(=O)COCCOCCNC(=O)CC[C@H](NC(=O)CCCCCCCCCCCCCCCCC(=O)O)C(=O)O)NC(=O)[C@H](CCCN)NC(=O)[C@H](CC(=O)O)NC(=O)[C@H](CC(C)C)NC(=O)[C@](C)(CC(C)C)NC(=O)[C@H](CO)NC(=O)[C@](C)(CO)NC(=O)[C@H](Cc1ccc(O)cc1)NC(=O)[C@H](CC(=O)O)NC(=O)[C@H](CO)NC(=O)[C@@H](NC(=O)[C@](C)(Cc1ccccc1)NC(=O)[C@@H](NC(=O)CNC(=O)[C@H](CCC(N)=O)NC(=O)C(C)(C)NC(=O)[C@@H](N)Cc1ccc(O)cc1)[C@@H](C)O)[C@@H](C)O)C(=O)N[C@H](CCC(=O)O)C(=O)N[C@@](C)(Cc1ccc(O)cc1)C(=O)N[C@@H](CC(C)C)C(=O)N[C@@H](CC(C)C)C(=O)N[C@@H](CCC(=O)O)C(=O)NCC(=O)NCC(=O)N1CCC[C@H]1C(=O)N[C@@H](CO)C(=O)N[C@@H](CO)C(=O)NCC(=O)N[C@@H](CCC(=O)O)C(=O)N1CCC[C@H]1C(=O)N1CCC[C@H]1C(=O)N1CCC[C@H]1C(=O)N[C@@H](CCC(=O)O)C(N)=O` [Example 389] (H-Y[Aib]QGT[αMeF]TSDY[αMeS]S[αMeL]LD[Orn]K([AEEA-γGlu-C18 diacid])AQ[Aib][Orn]FI[dE][αMeY]LLEGGPSSGEPPPE-NH2): the EC50 turned out to be 0.134 nM on hGLP-1R [1] (setting [5]); 18.9 nM on hGLP-1R [2]; 0.0354 nM on hGIPR [3] (setting [5]); 889 nM on human GcgR; 4.03 nM at hGcgR (setting [5]); 18.3 nM at hGIPR [4].
As to “H-Y[Aib]QGT[αMePhe(2-F)]TSDYSI[αMeL]LD[Orn]K([AEEA-γGlu-C18 diacid])AQ[Aib]AFI[dE]YLLEGGPSSGAPPPSEG-NH2 [Example 404]”, the EC50 on hGLP-1R [1] is 0.217 nM; on hGLP-1R [2] it was 32.2 nM; on hGIPR [3], 0.0102 nM; at human GcgR, 735 nM; at hGcgR it was 4.1 nM; at hGIPR [4], 2.03 nM.
As to `CC[C@H](C)[C@H](NC(=O)[C@H](Cc1ccccc1)NC(=O)[C@H](C)NC(=O)C(C)(C)NC(=O)[C@H](CCC(N)=O)NC(=O)[C@H](C)NC(=O)[C@H](CCCCNC(=O)COCCOCCNC(=O)COCCOCCNC(=O)CC[C@H](NC(=O)CCCCCCCCCCCCCCCCC(=O)O)C(=O)O)NC(=O)[C@H](CCCCN)NC(=O)[C@H](CC(=O)O)NC(=O)[C@H](CC(C)C)NC(=O)[C@H](CC(C)C)NC(=O)[C@@H](NC(=O)[C@H](CO)NC(=O)[C@H](Cc1ccncc1)NC(=O)[C@H](CC(=O)O)NC(=O)[C@H](CO)NC(=O)[C@@H](NC(=O)[C@](C)(Cc1ccccc1)NC(=O)[C@@H](NC(=O)CNC(=O)[C@H](CCC(N)=O)NC(=O)C(C)(C)NC(=O)[C@@H](N)Cc1ccc(O)cc1)[C@@H](C)O)[C@@H](C)O)[C@@H](C)CC)C(=O)N[C@@H](CCC(=O)O)C(=O)N[C@@H](Cc1ccc(O)cc1)C(=O)N[C@@H](CC(C)C)C(=O)N[C@@H](CC(C)C)C(=O)N[C@@H](CCC(=O)O)C(=O)NCC(=O)NCC(=O)N1CCC[C@H]1C(=O)N[C@@H](CO)C(=O)N[C@@H](CO)C(=O)NCC(=O)N[C@@H](C)C(=O)N1CCC[C@H]1C(=O)N1CCC[C@H]1C(=O)N1CCC[C@H]1C(=O)N[C@@H](CO)C(N)=O` [Example 418] (H-Y[Aib]QGT[αMeF]TSD[4Pal]SILLDKK([AEEA-AEEA-γGlu-C18 diacid])AQ[Aib]AFIEYLLEGGPSSGAPPPS-NH2; N-terminus assumed), the EC50 is 0.264 nM at hGLP-1R [1]; 36.6 nM on hGLP-1R [2]; 0.0153 nM at hGIPR [3]; 627 nM on human GcgR; 4.7 nM on hGcgR; 6.02 nM on hGIPR [4].
